tested on: SARS-CoV-2 strain USA-WA1/2020; test: microbe, parasite or virus in culture; format: cell-based; conditions: Severe acute respiratory syndrome coronavirus 2, HeLa-ACE2, 24 h, HeLa-ACE2 cells, SARS-CoV-2 infection, 24 h; bound printed in cell; read-out: EC50, uM (Hela)

Compound | EC50 [µM]
Cn1cncc1C(O)C(=O)N1CC2(CC2)C[C@H]1C(=O)N[C@@H](C[C@@H]1CCNC1=O)C(=O)COC(F)(F)F (stereo partly drawn) [Compound 383, (6S)-5-(2-hydroxy-2-(1-methyl-1H-imidazol-5-yl)acetyl)-N-((S)-3-oxo-1-((S)-2-oxopyrrolidin-3-yl)-4-(trifluoromethoxy)butan-2-yl)-5-azaspiro[2.4]heptane-6-carboxamide] | > 1

same assay, conditions: Severe acute respiratory syndrome coronavirus 2, HeLa-ACE2, 24 h, HeLa-ACE2 cells, SARS-CoV-2 infection, 24 h; class symbols; read-out: EC50, uM (Hela)

Compound | EC50 [µM]
O=C(Nc1ccccc1)C(=O)N[C@@H](CC1CC1)C(=O)N[C@@H](C[C@@H]1CCNC1=O)C(=O)COc1c(F)c(F)cc(F)c1F [Compound 30, N1-((S)-3-cyclopropyl-1-oxo-1-(((S)-3-oxo-1-((S)-2-oxopyrrolidin-3-yl)-4-(2,3,5,6-tetrafluorophenoxy)butan-2-yl)amino)propan-2-yl)-N2-phenyloxalamide] | < 0.05
CC(C)(C)C[C@H](NC(=O)[C@H]1CCCO1)C(=O)N[C@@H](C[C@@H]1CCNC1=O)C(=O)COC(F)(F)F [Compound 301, (R)-N-((S)-4,4-dimethyl-1-oxo-1-(((S)-3-oxo-1-((S)-2-oxopyrrolidin-3-yl)-4-(trifluoromethoxy)butan-2-yl)amino)pentan-2-yl)tetrahydrofuran-2-carboxamide] | < 0.05
CC(C)C[C@H](NC(=O)Nc1ccccc1F)C(=O)N[C@@H](C[C@@H]1CCNC1=O)C(=O)COc1c(F)c(F)cc(F)c1F [Compound 84, (S)-2-(3-(2-fluorophenyl)ureido)-4-methyl-N-((S)-3-oxo-1-((S)-2-oxopyrrolidin-3-yl)-4-(2,3,5,6-tetrafluorophenoxy)butan-2-yl)pentanamide] | 0.05 to 0.2
CC(C)C[C@H](NC(=O)C(=O)Nc1cc(F)ccc1F)C(=O)N[C@@H](C[C@@H]1CCNC1=O)C(=O)COc1c(F)c(F)cc(F)c1F [Compound 72, Nl-(2,5-difluorophenyl)-N2-((S)-4-methyl-1-oxo-1-(((S)-3-oxo-1-((S)-2-oxopyrrolidin-3-yl)-4-(2,3,5,6-tetrafluorophenoxy)butan-2-yl)amino)pentan-2-yl)oxalamide] | 0.05 to 0.2
O=C1NCC[C@H]1C[C@H](NC(=O)[C@@H]1[C@H]2CCC[C@H]2CN1C(=O)C12CCC(CC1)O2)C(=O)COC(F)(F)F [Compound 308, (1S,3aR,6aS)-2-(7-oxabicyclo[2.2.1]-heptane-1-carbonyl)-N-((S)-3-oxo-1-((S)-2-oxopyrrolidin-3-yl)-4-(trifluoromethoxy)butan-2-yl)octahydrocyclo-penta[c]pyrrole-1-carboxamide] | 0.05 to 0.2
CC(C)C[C@H](NC(=O)C(=O)NC1CCCCC1)C(=O)N[C@@H](C[C@@H]1CCNC1=O)C(=O)COC(F)(F)F [Compound 163, N1-cyclohexyl-N2-((S)-4-methyl-1-oxo-1-(((S)-3-oxo-1-((S)-2-oxopyrrolidin-3-yl)-4-(trifluoromethoxy)butan-2-yl)amino)pentan-2-yl)oxalamide] | < 0.05
CC1(C)[C@@H]2[C@@H](C(=O)N[C@@H](C[C@@H]3CCNC3=O)C(=O)COC(F)(F)F)N(C(=O)[C@H]3COCCO3)C[C@@H]21 [Compound 306, (1R,2S,5S)-3-((R)-1,4-dioxane-2-carbonyl)-6,6-dimethyl-N-((S)-3-oxo-1-((S)-2-oxopyrrolidin-3-yl)-4-(trifluoromethoxy)butan-2-yl)-3-azabicyclo[3.1.0]-hexane-2-carboxamide] | 0.05 to 0.2
CC(C)C[C@H](NC(=O)C(=O)Nc1ccc(Cl)cc1)C(=O)N[C@@H](C[C@@H]1CCNC1=O)C(=O)COc1c(F)c(F)cc(F)c1F [Compound 39, N1-(4-chlorophenyl)-N2-((S)-4-methyl-1-oxo-1-(((S)-3-oxo-1-((S)-2-oxopyrrolidin-3-yl)-4-(2,3,5,6-tetrafluorophenoxy)butan-2-yl)amino)pentan-2-yl)oxalamide] | 0.05 to 0.2
CC(C)C[C@H](NC(=O)C(=O)Nc1cccc(Cl)c1)C(=O)N[C@@H](C[C@@H]1CCNC1=O)C(=O)COc1c(F)c(F)cc(F)c1F [Compound 52, N1-(3-chlorophenyl)-N2-((S)-4-methyl-1-oxo-1-(((S)-3-oxo-1-((S)-2-oxopyrrolidin-3-yl)-4-(2,3,5,6-tetrafluorophenoxy)butan-2-yl)amino)pentan-2-yl)oxalamide] | 0.05 to 0.2
CC(C)C[C@@H](OC(=O)NC(C)C)C(=O)N1CC2(CC2)C[C@H]1C(=O)N[C@@H](C[C@@H]1CCNC1=O)C(=O)COC(F)(F)F [Compound 329, (R)-4-methyl-1-oxo-1-((S)-6-(((S)-3-oxo-l-((S)-2-oxopyrrolidin-3-yl)-4-(trifluoromethoxy)butan-2-yl)carbamoyl)-5-azaspiro[2.4]heptan-5-yl)pentan-2-yl isopropylcarbamate] | < 0.05
CC(C)C[C@H](NC(=O)c1ncc(-c2cccc(F)c2)[nH]1)C(=O)N[C@@H](C[C@@H]1CCNC1=O)C(=O)COC(F)(F)F [Compound 209, 5-(3-fluorophenyl)-N-((S)-4-methyl-1-oxo-1-(((S)-3-oxo-1-((S)-2-oxopyrrolidin-3-yl)-4-(trifluoromethoxy)butan-2-yl)amino)pentan-2-yl)-1H-imidazole-2-carboxamide] | < 0.05

same assay, conditions: Severe acute respiratory syndrome coronavirus 2, HeLa-ACE2, 24 h, HeLa-ACE2 cells, SARS-CoV-2 infection, 24 h; given as bound; read-out: EC50, uM (Hela)

Compound | EC50 [µM]
O=C(NC12CC(F)(C1)C2)C(=O)N[C@]1(C(=O)N[C@@H](C[C@@H]2CCNC2=O)C(=O)COC(F)(F)F)C[C@H]1C1CC1 [Compound 579, N1-(3-fluorobicyclo-[1.1.1]pentan-1-yl)-N2-((1S,2R)-2-(((S)-3-oxo-1-((S)-2-oxopyrrolidin-3-yl)-4-(trifluoromethoxy)butan-2-yl)carbamoyl)-[1,1′-bi(cyclopropan)]-2-yl)oxalamide] | > 1

same assay, conditions: Severe acute respiratory syndrome coronavirus 2, HeLa-ACE2, 24 h, HeLa-ACE2 cells, SARS-CoV-2 infection, 24 h; read-out: EC50, uM (Hela)

Compound | EC50 [µM]
CC(C)C[C@H](C(=O)N1CC2(CC2)C[C@H]1C(=O)N[C@@H](C[C@@H]1CCNC1=O)C(=O)COC(F)(F)F)N(C)C(=O)OC(C)(C)C [Compound 645, tert-butyl methyl((R)-4-methyl-1-oxo-1-((S)-6-(((S)-3-oxo-1-((S)-2-oxopyrrolidin-3-yl)-4-(trifluoromethoxy)butan-2-yl)carbamoyl)-5-azaspiro[2.4]heptan-5-yl)pentan-2-yl)carbamate] | 0.05 to 0.2
CC(C)(C)c1ccc(C(=O)N2CC3(CC3)C[C@H]2C(=O)N[C@@H](C[C@@H]2CCNC2=O)C(=O)COC(F)(F)F)cc1 [Compound 453, (S)-5-(4-(tert-butyl)benzoyl)-N-((S)-3-oxo-1-((S)-2-oxopyrrolidin-3-yl)-4-(trifluoromethoxy)butan-2-yl)-5-azaspiro[2.4]heptane-6-carboxamide] | < 0.05
CC(C)(C)NC(=O)C(=O)N1C[C@@H]2CC[C@@H]2[C@H]1C(=O)N[C@@H](C[C@@H]1CCNC1=O)C(=O)COC(F)(F)F [Compound 561, (1S,2S,5R)-3-(2-(tert-butylamino)-2-oxoacetyl)-N-((S)-3-oxo-1-((S)-2-oxopyrrolidin-3-yl)-4-(trifluoromethoxy)butan-2-yl)-3-azabicyclo-[3.2.0]heptane-2-carboxamide] | 0.2 to 0.5
[2H]C(C)(C)C(=O)N1CC2(CC2)C[C@H]1C(=O)N[C@@H](C[C@@H]1CCNC1=O)C(=O)COC(F)(F)F [Compound 738, (S)-5-(2-methylpropanoyl-2-d)-N-((S)-3-oxo-1-((S)-2-oxopyrrolidin-3-yl)-4-(trifluoromethoxy)butan-2-yl)-5-azaspiro[2.4]heptane-6-carboxamide] | 0.05 to 0.2
CC(C)OCC(=O)N1CC2(CC2)C[C@H]1C(=O)N[C@@H](C[C@@H]1CCNC1=O)C(=O)COC(F)(F)F [Compound 647, (888S)-5-(2-isopropoxyacetyl)-N-((S)-3-oxo-1-((S)-2-oxopyrrolidin-3-yl)-4-(trifluoromethoxy)butan-2-yl)-5-azaspiro[2.4]heptane-6-carboxamide] | 0.05 to 0.2
CC(C)(NC(=O)C(=O)N1C[C@H]2[C@@H]([C@H]1C(=O)N[C@@H](C[C@@H]1CCNC1=O)C(=O)COC(F)(F)F)C2(C)C)C(F)F [Compound 555, (1R,2S,5S)-3-(2-((l,l-difluoro-2-methylpropan-2-yl)amino)-2-oxoacetyl)-6,6-dimethyl-N-((S)-3-oxo-1-((S)-2-oxopyrrolidin-3-yl)-4-(trifluoromethoxy)butan-2-yl)-3-azabicyclo-[3.1.0]hexane-2-carboxamide] | < 0.05
CN[C@H](CC(C)C)C(=O)N1CC2(CC2)C[C@H]1C(=O)N[C@@H](C[C@@H]1CCNC1=O)C(=O)COC(F)(F)F [Compound 660, (S)-5-(methyl-D-leucyl)-N-((S)-3-oxo-1-((S)-2-oxopyrrolidin-3-yl)-4-(trifluoromethoxy)butan-2-yl)-5-azaspiro[2.4]heptane-6-carboxamide] | 0.05 to 0.2
CC(C)[C@@H](O)C(=O)N1[C@H](C(=O)N[C@@H](C[C@@H]2CCNC2=O)C(=O)COC(F)(F)F)C[C@@]2(C)C[C@@H]12 [Compound 452, (1R,3S,5R)-2-((R)-2-hydroxy-3-methylbutanoyl)-5-methyl-N-((S)-3-oxo-1-((S)-2-oxopyrrolidin-3-yl)-4-(trifluoromethoxy)butan-2-yl)-2-azabicyclo[3.1.0]hexane-3-carboxamide] | 0.05 to 0.2
CC(C)C[C@@H](N)C(=O)N1CC2(CC2)C[C@H]1C(=O)N[C@@H](C[C@@H]1CCNC1=O)C(=O)COC(F)(F)F [Compound 644, (S)-5-(D-leucyl)-N-((S)-3-oxo-1-((S)-2-oxopyrrolidin-3-yl)-4-(trifluoromethoxy)butan-2-yl)-5-azaspiro[2.4]heptane-6-carboxamide] | 0.2 to 0.5
CSCC[C@H](NC(=O)[C@H](CC(C)C)NC(=O)C(=O)Nc1ccccc1F)C(=O)COc1c(F)c(F)cc(F)c1F [Compound 654, N1-(2-fluorophenyl)-N2-((S)-4-methyl-1-(((S)-5-(methylthio)-2-oxo-1-(2,3,5,6-tetrafluorophenoxy)pentan-3-yl)amino)-1-oxopentan-2-yl)oxalamide] | 0.5 to 1

From patent US11708348B2, “Protease inhibitors for treatment of coronavirus infections” (The Scripps Research Institute, priority 2021, dated 2023)
